From patent publication US20150352114A1, “MITOTIC KINESIN Eg5 INHIBITING ANTICANCER AGENTS” (THE CLEVELAND CLINIC FOUNDATION, priority 2014, published 2015) come the findings set out here.

Test [1] deals with GFP-positive tumor cells. Briefly: Brain slice culture time-lapse cell migration, PDGF-IRES-GFP retrovirus glioma model. In kind it is cell-based, rat. Conditions: 200 nM. Here is the method:
The PDGF-IRES-GFP retrovirus was produced according to well known methods previously described. P3 neonatal Sprague-Dawley rats were anesthetized using hypothermia. Briefly, each pup was carefully wrapped in several layers of gauze and then covered with ice. After 12 minutes, the rat pup's head was placed in a DKI 963 Stereotaxic Alignment Instrument (David Kopf Instruments, Tujunga, Calif.). The bregma was identified and using a sterile 18 gauge needle a small hole was poked into the skull that was 1 mm rostral and 2 mm to the right of the bregma. A 27-gauge Hamilton microsyringe (Reno, Nev.) was then inserted to a depth of 1.5 mm, and 2 ul of virus was injected at a rate of 0.2 ul/min.
At days P8, P9, and P10, PDGF-IRES-GFP injected rat pups were anesthetized with Ketamine/Xylazine cocktail and decapitated. Brains were isolated and 300-um coronal sections were taken in the vicinity of the injection site using a McIlwain tissue chopper. The slices were transferred onto a porous 0.4-um culture plate insert (Millipore, Billerica, Mass.) and then placed into Glass Bottom 6 well plates (P06G-0-20-F, MatTek Corp, Ashland, Mass.) containing slice culture media (MEM, 2 mM L-glutamine, […], 10% Glucose, Its (Sigma, 12521) and Anti-Anti (Gibco, 15240-062)). Microglial and perivascular cells of the brain sections were stained with Isolectin GS-IB4, Alexa fluor 594 conjugate (Invitrogen) for 30 minutes at 37° C., washed three times with PBS and returned to a humidified atmosphere at 5% (CO2). Images of the brain slices for time-lapse microscopy were acquired with a Perkin Elmer UltraView Spinning Disk microscope on a Leica DMI 6000 with a 10× Plan Apo 0.4 NA objective lens. During imaging, the brain slices were placed in a stage mounted 37° C. incubator where 60% humidity and 5% CO2 was maintained. The emission range for 488 and 561 is […] and 580-650, respectively and acquisition and analysis were performed using Velocity software. The migratory path of the individual cells was then tracked every 7 minutes by marking the position of the cell body at consecutive time points.
Fluorescence, time-lapse image stacks consisting of ˜150 frames (7 minute intervals) were imported into Image-Pro Plus (v7.0, Media Cybernetics, Silver Spring, Md.). Gliomal cell tracking for each treatment group (55 cells/group) was performed in a semi-automated fashion using a combination of Fourier correlation and user-guided input. Cells selected for tracking were chosen randomly from the periphery of the tumor mass in each image stack. X and Y coordinates from each cell track were exported to Excel and translated such that each cell's track originated from a common origin (0,0). […] Mean-squared displacement for tracked cells in each group was analyzed using a persistent random-walk model (1,2). Speed (um/s) and persistence (min) were extracted using a non-linear least-squared regression to the model equation for each track and averaged for each treatment group.

The subject of test [2] is GSCs. Briefly: Limiting dilution assay and sphere formation (self-renewal). Conditions: pretreatment 18 hours with 3 nM; scored ten days later. Type of test: cell-based, human. Here is the method: GSCs were isolated from subcutaneous flank xenografts of patient-derived specimens by magnetic sorting as described above and allowed to recover overnight. The next day cells were exposed to vehicle or 3 nM ispinesib for 18 hours. Cells were then washed and triturated into a single cell suspension. Cell sorting was performed using a FACS Aria II Cell Sorter (BD Biosciences, Franklin Lakes, N.J., USA) to plate the cells into 96 well plates at a final cell number per well of 1 (38 wells/plate), 5 (24 wells/plate), 10, 20, or 50 (all at 12 wells/plate). Tumorsphere formation was evaluated 10 days after sorting and wells were scored positive or negative for the presence of at least one tumorsphere. The estimated stem cell frequency was calculated using extreme limiting dilution analysis. Only live cells were selected for using Live/Dead dye blue (Life Technologies).

Test [3] relates to matched GSCs and NSTCs. Briefly: Long-term viability assay, CellTiter-Glo, 5 days. The note with it: 3 nM; two matched GSCs and NSTCs. Type of test: cell-based, human. As to the method: The half maximal effective concentration of ispinesib for acutely dissociated and MACS sorted matched GSCs and NSTCs was determined by plating, in triplicate, 1,000 cells per well of a 96 well plate pre-coated with GelTrex in growth-factor free Neuralbasal media. The next day, cells were exposed to 2-fold increasing concentrations of ispinesib spanning from 0 to 32 nM. Viability was measured at 72 hours using CellTiter-Glo ATP-based assay (Promega, Madison, Wis.) read on a luminometer (Perkin-Elmer, Waltham, Mass.). For long-term viability assays, 500 cells per well were plated in triplicate into 96-well plates as above. The next day, cells were exposed to 3 nM ispinesib or vehicle (DMSO) and viability was measured daily for 5 days using CellTiter-Glo. Day 0 reading were taken immediately after addition of drug or vehicle. SubG1 for GSCs and NSTCs was determined by flow cytometry for propidium iodide and gated as the events below the 2N G1 peak of the resulting histogram. Analysis was done following treatment of 100,000 cells with vehicle or 3 nM ispinesib. Cells were fixed at Day 0 through Day 4 in 100% cold ethanol and simultaneously processed for flow analysis with 20,000 events analyzed per condition.
A general note: ATP-based viability assays read luminescence as a measure of living cells.

The test system of test [4] is human brain microvascular endothelial cells. Briefly: Endothelial tube formation on Matrigel. Type of test: cell-based. Conditions: 200 nM; 6-hour time course. Here is the method: Primary Human Brain Microvascular Endothelial Cells were purchased from Cell Systems (Kirkland, Wash.) and used at passages 3 through 6. Cells were maintained in EGM-2 MV media from Lonza (Walkersville, Md.) and stained with CellTracker™ Green CMFDA Dye from Invitrogen (Eugene, Oreg.) for fluorescent imaging. Tube formation assays were performed on Matrigel from Corning (Tewksbury, Mass.) in glass bottom 6-well plates from MatTek (Ashland, Mass.). Cells were plated at a density of 1.3×10^4 per cm^2 and imaged at the indicated times.

For test [5], the system named is 08-387 GSCs. In words: Wound assay, tubulin immunofluorescence. Type of test: cell-based, human. The note with it: 200 nM; 6 hours. As to the method: Interphase enriched 08-387 GSCs were seeded within two-well culture inserts (ibidi, Verona, Wis.) at 2×10^5 cells per ml in triplicate (final volume of 80 μl per well) onto Geltrex coated glass bottom 6 well pates (MatTek Corp., Ashland, Mass.). After 2 hours, the insert was removed and cells were exposed to vehicle or 200 nM ispinesib. 6 hours later, cells were fixed and processed for immunofluorescence as described for atubulin. 20 Z-stack images at the wound edge were captured per condition using the 40× objective on a Leica DMI6000 inverted microscope. Images were then exported aa tif files using Velocity software (Mountain View, Calif.) and analyzed in ImageJ (NIH, Bethesda, Md.). Regions of interest were drawn for the primary cell layer at the wound edge for 3 independent scans per Z-stack representing the top, middle and bottom portion of the cell layer and pixel intensity and area measured.

The mark [6] stands for this setting: Persistent Random Walk model fit.

As to `Cc1ccc(C(=O)N(CCCN)[C@@H](c2nc3cc(Cl)ccc3c(=O)n2Cc2ccccc2)C(C)C)cc1` [ispinesib, N-(3-amino-propyl)-n-[R-1-(3-benzyl-7-choloro-4-oxo-3,4-dihydroquinazolin-2-yl)-2-methyl-propyl]-4-methyl-benzamide methanesulfonate], the “tumor dispersion (Wind Rose plots, MSD)” value in test [1] is reported as “clear reduction in tumor dispersion”. In addition, in test [1] (versus control), the “reduction in mean squared displacement” value is given as “approximately four-fold” and the “reduction of cell velocity” value is “approximately two-fold”. In test [1] (setting [6]), the cell velocity is given as 11.3±0.2 μm/hr and the persistence time came out at 2.3 ± 0.1 h. Also, the “stem cell frequency (tumorsphere formation)” value in test [2] was “significantly compromised”. Further, the “cell viability over five-day time course” value in test [3] is “Both populations demonstrated sensitivity”. Besides, in test [4], the endothelial tube formation entry is “failed to properly organize into tubes”. Besides, in test [5], the “polymerized tubulin at wound edge” value is recorded as “significant decrease in polymerized tubulin”.
